Results: ChEMBL document CHEMBL3046362, “Synthesis, antioxidant evaluation, and quantitative structureactivity relationship studies of chalcones” (Med Chem Res, 2011)
Activity calls are given as the source filed them. The rule behind the calls is not given here.

Key:
Format in all cases: functional
[1] = Antioxidant activity assessed as reducing power of potassium ferricyanide at 50 ug/ml after 20 min by spectrophotometry; design: scale not given: the % may be the effect or the level left
[2] = test system: Radical scavenging activity; assay: Antioxidant activity assessed as DPPH radical scavenging activity at 50 ug/ml after 20 min
[3] = Antioxidant activity assessed as hydrogen peroxide radical scavenging activity at 50 ug/ml after 10 min by spectrophotometry
[4] = Antioxidant activity assessed as superoxide radical scavenging activity at 50 ug/ml after 10 min by NBT reduction assay
[5] = test system: Radical scavenging activity; assay: Antioxidant activity assessed as DPPH radical scavenging activity at 100 to 250 ug/ml by EPR spectroscopy

SMILES	Activity [1]	Activity [2]	Activity [3]	Activity [4]	Activity [5]
Cc1cc(C(C)(C)C)c(O)c(C(C)(C)C)c1	56.1%	26.4%	42.6%	79.1%	–
COc1cc(/C=C/C(=O)c2ccccc2)cc(OC)c1OC	40.6%	15.6%	22.7%	28.9%	–
CSc1ccc(/C=C/C(=O)c2cccc([N+](=O)[O-])c2)cc1	27.2%	15.3%	46.4%	39.7%	–
CSc1ccc(/C=C/C(=O)c2ccc(Br)cc2)cc1	18.8%	18%	49.7%	18%	–
COc1ccc(/C=C/C(=O)c2ccc(C)cc2)cc1	23.1%	1.3%	4.54%	15.4%	–
CSc1ccc(/C=C/C(=O)c2ccc(C)cc2)cc1	23.8%	3.16%	31.7%	23.1%	–
CSc1ccc(/C=C/C(=O)c2ccc(Cl)cc2Cl)cc1	10.1%	4.07%	17.4%	30.9%	–
COc1ccccc1/C=C/C(=O)c1ccc([N+](=O)[O-])cc1	32.8%	7%	61.3%	34.5%	–
COc1ccccc1/C=C/C(=O)c1ccccc1	21.8%	0.98%	4.54%	18.6%	–
COc1ccc(/C=C/C(=O)c2ccc(Cl)cc2Cl)cc1OC	33.8%	15.7%	23.8%	32.6%	–
CN(C)c1ccc(/C=C/C(=O)c2cccc([N+](=O)[O-])c2)cc1	28.6%	18.6%	17.4%	39%	–
COc1ccc(C(=O)/C=C/c2ccc(SC)cc2)cc1	24.3%	2.64%	29.5%	17.8%	–
O=C(/C=C/c1ccccc1)c1ccccc1	42.4%	18.6%	25.4%	32.6%	–
CSc1ccc(/C=C/C(=O)c2cccc(O)c2)cc1	51.6%	21.2%	28.7%	53.3%	–
O=C1O[C@H]([C@@H](O)CO)C(O)=C1O	22.6%	28%	78.3%	82.9%	–
COc1ccc(/C=C/C(=O)c2ccccc2)cc1	21.2%	5.34%	12.3%	21.3%	–
COc1ccc(/C=C/C(=O)c2cccc([N+](=O)[O-])c2)cc1OC	43.5%	15.4%	35.9%	53.4%	–
COc1ccc(/C=C/C(=O)c2cccc(O)c2)cc1	37.5%	35.7%	42.8%	62%	Active
COc1ccc(/C=C/C(=O)c2cccc([N+](=O)[O-])c2)c(OC)c1	26.5%	7.9%	5.91%	23.1%	–
COc1ccccc1/C=C/C(=O)c1cccc([N+](=O)[O-])c1	22.4%	6.93%	24.3%	5.39%	–
CSc1ccc(/C=C/C(=O)c2ccc(O)cc2)cc1	46%	28.9%	23.8%	52.6%	–
CSc1ccc(/C=C/C(=O)c2ccc([N+](=O)[O-])cc2)cc1	3.17%	15.9%	4.61%	17.4%	–
CSc1ccc(/C=C/C(=O)c2ccccc2O)cc1	46.7%	15.4%	33.3%	50.2%	–
CN(C)c1ccc(/C=C/C(=O)c2ccccc2)cc1	9.52%	8.08%	12.1%	13.8%	–
CSc1ccc(/C=C/C(=O)c2ccccc2)cc1	19.8%	10.2%	4.26%	27.4%	–
CSc1ccc(/C=C/C(=O)c2ccc(Cl)cc2)cc1	30.9%	23.2%	43.5%	41.4%	–
CN(C)c1ccc(/C=C/C(=O)c2ccc(Cl)cc2Cl)cc1	22%	12.9%	32.6%	10.9%	–
